Test results from paper PMC10095193, “Myokine Musclin Is Critical for Exercise-Induced Cardiac Conditioning” (International Journal of Molecular Sciences, 2023).
Residues, ends and D or L forms follow the SMILES beside them.

Assay: Synthetic musclin peptide plasma elimination half-life and volume of distribution (NMR of plasma after jugular vein injection)
Format: in vivo, mouse
Description: The musclin [^13C,^15N-A26-V27]-labeled peptide sequence used was as follows: […], corresponding to amino acids 80–112; GenBank accession no. AAS87598.1 (Bio-synthesis, Inc. Lewisville, TX, USA). A peptide was synthesized with 98% purity, counter-ion exchange (TFA to Cl), and pH adjustment (Bio-synthesis, Inc. Lewisville, TX, USA).
For infusion, 1.7 mg of the chemically synthesized [^13C,^15N-A26-V27]-labeled musclin peptide was dissolved in 300 µL of PBS. This musclin solution was injected into the jugular vein. A 100 µL blood sample was then drawn from the carotid artery at 1, 3, 5, 7, 10, and 15 min after the peptide infusion. Blood was mixed with 5 µL of 10% NaEDTA and 1 µL of peptidase inhibitor cocktail (Sigma, St. Louis, MI, USA) and kept on ice, then centrifuged at 4 °C for 45 min at 14,000 rpm. Plasma was removed and stored at −80 °C for NMR studies.
All NMR spectra were acquired at 5 °C on a Bruker Avance II 800 MHz NMR spectrometer equipped with a TCI cryoprobe. 100 µL of plasma (see above) was added 150 µL NMR buffer containing 50 mM sodium phosphate, pH 7.1 with a final volume of 250 µL in 8.5% D2O/91.5% H2O. This sample was then transferred to a Shigemi NMR tube for NMR studies. One-dimensional (1D) ^1H, two-dimensional (2D) ^15N/^1H-heteronuclear single-quantum correlation (HSQC), 2D ^13C/^1H-HSQC with constant time experiment (HSQC-CT), and 2D ^15N/^1H-slice of the three-dimensional (3D) HNCO experiment were acquired for each blood sample drawn at different times after peptide infusion. The collected NMR data were processed using NMRPipe and analyzed using NMRView. The musclin peptide concentration present in these blood samples was calibrated by using a known amount of chemically synthesized [^13C,^15N-A26-V27]-labeled musclin peptide. The peak intensity of these acquired NMR spectra was measured and fitted to the equation for half-life in exponential decay using GraphPad Prism (GraphPad Software version 9.4.1).

SMILES: CC(C)C[C@H](NC(=O)[C@H](CCCNC(=N)N)NC(=O)[C@H](CC(=O)O)NC(=O)[C@H](CC(C)C)NC(=O)[C@@H]1CCCN1C(=O)[C@H](CO)NC(=O)CNC(=O)[C@H](Cc1ccccc1)NC(=O)CNC(=O)[C@H](CO)NC(=O)[C@H](Cc1ccccc1)NC(=O)[C@@H](N)CO)C(=O)N[C@@H](CO)C(=O)N[C@@H](C)C(=O)NCC(=O)N[C@@H](CO)C(=O)N[C@H](C(=O)N[C@@H](CCC(=O)O)C(=O)N[C@@H](Cc1c[nH]cn1)C(=O)N[C@@H](CCCNC(=N)N)C(=O)NCC(=O)N[C@@H](CCCCN)C(=O)N[C@@H](CCC(N)=O)C(=O)N[C@@H](CCCNC(=N)N)C(=O)N[C@@H](CCCCN)C(=O)N[C@@H](C)C(=O)N[C@H](C(=O)N[C@@H](CC(=O)O)C(=O)N[C@@H](Cc1c[nH]cn1)C(=O)N[C@@H](CO)C(=O)N[C@@H](CCCCN)C(=O)N[C@@H](CCCCN)C(=O)N[C@@H](CCCNC(=N)N)C(=O)O)C(C)C)C(C)C (H-SFSGFGSPLDRLSAGSVEHRGKQRKAVDHSKKR-OH; N-terminus and C-terminus assumed)
- Cl, clearance = Ke × Vd (calculated for a mouse of 27 g): 1.71 mL/min
- C0 (in vivo, iv, mouse, 1.7 mg i.v. (jugular vein), NMR calibrated with known amount of labeled peptide, read-out: initial plasma concentration): 36 µM
- half-life (in vivo, iv, mouse, 1.7 mg in 300 µL PBS injected into jugular vein, carotid artery blood at 1, 3, 5, 7, 10, 15 min, plasma NMR at 5 °C, HNCO (2D) peak intensities fitted to exponential decay, read-out: plasma elimination half-life (t ½)): 4.6 min
- volume of distribution (Vd) per g body weight (mouse of 31 g, Vd = administered dose/initial concentration, 1.7 mg i.v. (jugular vein)): 0.419 ml/g of BW
- Ke, elimination rate = 0.693/T1/2 (mouse, i.v. (jugular vein)): 0.151 min⁻¹
- Vd (mouse, in vivo, iv, for mice of 31 g, 1.7 mg/0.131 mg/mL): 0.013 L
